Assay results as given in patent EP1310250A1, “Use of the compound 2-methoxyphenyl-1-methyl-5P-methylbenzoyl-pyrrol-2-acetamido acetate for the production of an antiinflammatory drug with prevention of gastric hypersecretion and renal impairment” (MEDOSAN Ricerca S.r.l., priority 1997, dated 1999).

How the values were obtained:
[1] = tested on: post-traumatic arthralgia; experiment: Clinical trials: analgesic properties in post-traumatic arthralgia; type: in vivo, man; conditions: Amtolmetin guacyl 600mgx2-daily, Diclofenac 50mgx2-daily, 15 patients each
Text: The same can be said in the treatment of post-traumatic arthralgia.

[2] = tested on: diuresis; experiment: Diuresis in normally hydrated rats; type: in vivo; conditions: normally hydrated rats treated orally for 8 consecutive days (figure 13)
Protocol: In the course of various studies conducted on animals to show the lack of renal impairment, a test was carried out to compare the diuresis in normally hydrated rats treated orally for 8 consecutive days with amtolmeting guacyl and diclofenac, which is also a NSAID.

[3] = tested on: blood pressure and cardiovascular system; experiment: Drug safety trials on blood pressure and cardiovascular system; conditions: rat, in vivo
Text: From a toxicological viewpoint the drug offers an excellent torability profile.

[4] = tested on: gastric acid secretion; experiment: Antisecretory activity in vivo in rat, histamine-induced acid secretion
Protocol: The methods used were those described by G Coruzzi, M. Adami, C. Pozzoli, E. Poli, G. Bertaccini (Pharmacology 1994;48: pages 69-76) and M. Leitold, W. Fleissig and A. Merk (Arzneim-Forsch/Drug Res. 34(I), Nr. 4, 1984).
The animals were treated in oral administration with amtolmetin guacyl 50 or 100 mg/kg, 1 h before the beginning of the perfusion with histamine. The controls received only the vehicle (CMC 1%).
After anaesthesia with urethan (1.25 g/kg i.p.), the oesophagus was ligated close to the stomach. Two cannulas of polyethylene are then inserted: one was inserted in the forestomach, the second one was inserted directly into the pyloric sphincter. The stomach was flushed with saline at 37°C (1 ml/min) and the flushed liquid, collected every 15 minutes, titred at ph 7 with NaOH 10^-2 M. The acid secretion was induced by an intravenous infusion (0.1 ml/min) of histamine (30 µmol/kg/h).
The acidity is expressed as µEqH^+/15 min.

[5] = tested on: post-operative pain; experiment: Clinical trials: analgesic properties in post-operative pain; type: in vivo, man; design: key to Antiphlogistic activity evaluation: excellent ^++++; good ^+++; poor ^++
Protocol: As reported in Table 14, the analgesic properties of amtolmetin guacyl were tested in postoperative pain with good results. […] The peak effect is obtained only after 2 hours, and it is maintained for 6 hours.

[6] = tested on: adverse events; experiment: Clinical trials: tolerability, adverse events and suspensions of treatment; design: species or system man; conditions: in vivo
Text: Interest in the amtolmetin guacyl molecule arose following a thorough analysis of the results of 31 comparative and 6 non-comparative clinical trials involving 1596 patients. […] Turthermore the physician, being aware of administering an NSAID, was expecting adverse events and could not be expected to be an impartial observer. The few cases of gastro-intestinal phenomena reported with amtolmetin guacyl were transitory and in no event accompanied by the presence of occult blood in the stools. Moreover, even in the presence of a reported side-effect it was almost never necessary to suspend treatment (0.4% of suspensions).
Following are summarized the results obtained on a total of 1596 patients in 37 clinical trials.
Confirmation of the above described advantages is the very low incidence of treatment suspension for adverse events found in clinics (Table 17), which is not the case for most of NSAIDs known in the art (Table 18).

[7] = tested on: fertility, embriotoxicity and teratogenicity; experiment: Fertility, embryotoxicity and teratogenicity studies, rabbit; type: in vivo
[8] = tested on: carrageenin-induced paw oedema; experiment: Determination of ID50, carrageenin-induced paw oedema; type: in vivo, rat; conditions: five times the oral ID50 for oedema inhibition, 2 h after carrageenin
Protocol: ID50, relative to the products under examination (considered in table 1), has been evaluated using the anti-inflammatory response to carrageenin-induced paw oedema (according to Wong et al, J Pharmacol Exp, 1973:1855; pages 127-138). The products, suspended in 1% CMC, were administered orally in a total volume of 5 ml/rat. 1 h later, 0.1 ml of 1% carrageenin sterile solution was injected into the hind subplantar aponeurosis. Volume of the paw was measured immediately prior to injection of the phlogogen and 2 h thereafter, by means of a plethysmograph. The percentage of inhibition of oedema was calculated as follows: 1 - ΔV treated/ΔV control x 100 [formula] where ΔV = final V - initial V.

[9] = tested on: extra-articular rheumatism; experiment: Clinical trials: antiphlogistic activity in extra-articular rheumatism; type: in vivo, man; design: key: excellent ^++++; good ^+++; poor ^++
Text: In extra-articular rheumatism amtolmetin guacyl was compared with diclofenac, naproxen and piperazine propionate.

COc1ccccc1OC(=O)CNC(=O)Cc1ccc(C(=O)c2ccc(C)cc2)n1C [amtolmetin guacyl, 2-methoxyphenyl-1-methyl-5p-methylbenzoylpyrrol-2-acetamido acetate]
Duration [1]: 360 min | Latency [1]: 20 min | Max. time effect [1]: 60 min | diuresis [2]: definite increase in diuresis | effects on blood pressure and on the cardiovascular system [3]: absence of effects on blood pressure and on the cardiovascular system | acidity ([4]; 50 mg/kg oral 1 h before histamine perfusion, time 0 min): 4 µEqH^+/15' | acidity ([4]; 50 mg/kg oral 1 h before histamine perfusion, time 15 min): 4 µEqH^+/15' | acidity ([4]; 50 mg/kg oral 1 h before histamine perfusion, time 30 min): 5 µEqH^+/15' | acidity ([4]; 50 mg/kg oral 1 h before histamine perfusion, time 45 min): 11 µEqH^+/15' | acidity ([4]; 50 mg/kg oral 1 h before histamine perfusion, time 60 min): 15 µEqH^+/15' | acidity ([4]; 50 mg/kg oral 1 h before histamine perfusion, time 75 min): 17 µEqH^+/15' | acidity ([4]; 50 mg/kg oral 1 h before histamine perfusion, time 90 min): 19 µEqH^+/15' | acidity ([4]; 50 mg/kg oral 1 h before histamine perfusion, time 105 min): 18.5 µEqH^+/15' | acidity ([4]; 50 mg/kg oral 1 h before histamine perfusion, time 120 min): 22 µEqH^+/15' | acidity ([4]; 50 mg/kg oral 1 h before histamine perfusion, time 135 min): 20 µEqH^+/15' | acidity ([4]; 100 mg/kg oral 1 h before histamine perfusion, time 0 min): 8 µEqH^+/15' | acidity ([4]; 100 mg/kg oral 1 h before histamine perfusion, time 15 min): 7 µEqH^+/15' | acidity ([4]; 100 mg/kg oral 1 h before histamine perfusion, time 30 min): 9 µEqH^+/15' | acidity ([4]; 100 mg/kg oral 1 h before histamine perfusion, time 45 min): 11 µEqH^+/15' | acidity ([4]; 100 mg/kg oral 1 h before histamine perfusion, time 60 min): 12 µEqH^+/15' | acidity ([4]; 100 mg/kg oral 1 h before histamine perfusion, time 75 min): 13 µEqH^+/15' | acidity ([4]; 100 mg/kg oral 1 h before histamine perfusion, time 90 min): 14 µEqH^+/15' | acidity ([4]; 100 mg/kg oral 1 h before histamine perfusion, time 105 min): 15 µEqH^+/15' | acidity ([4]; 100 mg/kg oral 1 h before histamine perfusion, time 120 min): 13 µEqH^+/15' | acidity ([4]; 100 mg/kg oral 1 h before histamine perfusion, time 135 min): 14 µEqH^+/15' | Antiphlogistic activity evaluation [5]: ^++++ | time for which the effect is maintained [5]: 6 h | Duration ([5]; 1200mg, 100 patients): 360 min | Latency ([5]; 1200mg, 100 patients): 30 min | Max. time effect ([5]; 1200mg, 100 patients): 180 min | time at which the antalgic effect is already evaluable ([5]; following administration): 30 ' | Treatment suspended % ([6]; human): 0,4% | suspensions of treatment ([6]; human): 0.4% | variations of the routine biological parameters [6]: no significant variations of the routine biological parameters were observed | fertility, embriotoxicity and teratogenicity [7]: demonstrated the safety product | Ratio to rat dosage (mg/kg) (ID50 mg/kg x5) [8]: 100 mg/kg | Antiphlogistic activity evaluation [9]: ^+++
